# Data: US20070203177A1, “Forms of dolasetron mesylate and processes for their preparation” (priority 2006, published 2007)
# Assay: Heat transformations of Dolasetron mesylate forms (solid-state form after heating)
# Assay type: physicochemical
smiles,measurement,setting,value
"CS(=O)(=O)O.O=C(OC1C[C@@H]2CC3C[C@H](C1)N2CC3=O)c1c[nH]c2ccccc12 (stereo partly drawn) [Form I, Dolasetron Mesylate]",HEAT TRANSFORMATION RESULT,"heated at 190 °C, 30 min.",Amorphous > III
"O=C(OC1CC2CC3CC(C1)N2CC3=O)c1c[nH]c2ccccc12 (stereo not drawn) [Form II, (2α,6α,8α,9αβ)-octahydro-3-oxo-2,6-methano-2H-quinolizin-8-yl-1H-indole-3-carboxylate monomethanesulfonate monohydrate, reference compound]",HEAT TRANSFORMATION RESULT (second TEMP./TIME),"after 160 °C, 30 min, then 160, 30 min",VII > III
"CS(=O)(=O)O.O=C(OC1C[C@@H]2CC3C[C@H](C1)N2CC3=O)c1c[nH]c2ccccc12 (stereo partly drawn) [Form IV, Dolasetron mesylate]",HEAT TRANSFORMATION RESULT,"heated at 160 °C, 60 min., listed as IV",VII + IV
"CS(=O)(=O)O.O=C(OC1C[C@@H]2CC3C[C@H](C1)N2CC3=O)c1c[nH]c2ccccc12 (stereo partly drawn) [Form V, Dolasetron mesylate]",HEAT TRANSFORMATION RESULT,"heated at 160 °C, 60 min., listed as V",XII
"CS(=O)(=O)O.O=C(OC1C[C@@H]2CC3C[C@H](C1)N2CC3=O)c1c[nH]c2ccccc12 (stereo partly drawn) [Form VIII, Dolasetron mesylate]",HEAT TRANSFORMATION RESULT,"heated at 160 °C, 30 min",XII
same,HEAT TRANSFORMATION RESULT,"heated at 160 °C, 60 min., listed as VIII",XII
